Experiments:
Type in all cases: in vivo
[1] = tested on: barnyardgrass (Echinochloa crus-galli); assay: Test C greenhouse herbicide test, pre- and postemergence
Source text: (§1) Seeds of plant species selected from blackgrass (Alopecurus myosuroides), ryegrass, Italian (Italian ryegrass, Lolium multiflorum), wheat (winter wheat, Triticum aestivum), galium (catchweed bedstraw, Galium aparine), corn (Zea mays), large crabgrass, large (large crabgrass, Digitaria sanguinalis), foxtail, giant (giant foxtail, Setaria faberii), johnsongrass (Sorghum halepense), lambsquarters (Chenopodium album), morningglory (Ipomoea coccinea), nutsedge, yellow (yellow nutsedge, Cyperus esculentus), pigweed (Amaranthus retroflexus), ragweed (common ragweed, Ambrosia elatior), soybean (Glycine max), barnyardgrass (Echinochloa crus-galli), oilseed rape (Brassica napus), waterhemp (common waterhemp, Amaranthus rudis), and velvetleaf (Abutilon theophrasti) were planted into a blend of loam soil and sand and treated preemergence with test chemicals formulated in a non-phytotoxic solvent mixture which included a surfactant.
(§2) At the same time, plants selected from these crop and weed species and also chickweed (common chickweed, Stellaria media), kochia (Kochia scoparia), and oat, wild (wild oat, Avena fatua), were planted in pots containing Redi-Earth® planting medium (Scotts Company, 14111 Scottslawn Road, Marysville, Ohio 43041) comprising spaghnum peat moss, vermiculite, wetting agent and starter nutrients and treated with postemergence applications of test chemicals formulated in the same manner. Plants ranged in height from 2 to 18 cm (1- to 4-leaf stage) for postemergence treatments. Treated plants and controls were maintained in a greenhouse for 13 to 15 d, after which time all species were compared to controls and visually evaluated. Plant response ratings, summarized in Table C, are based on a scale of 0 to 100 where 0 is no effect and 100 is complete control. A dash (-) response means no test result.

[2] = tested on: blackgrass (Alopecurus myosuroides); assay: as above
Source text: as §1, §2

corn (Zea mays) = assay: as above
Source text: as §1, §2

[3] = tested on: crabgrass, large (large crabgrass, Digitaria sanguinalis); assay: as above
Source text: as §1, §2

[4] = tested on: foxtail, giant (giant foxtail, Setaria faberii); assay: as above
Source text: as §1, §2

[5] = tested on: galium (catchweed bedstraw, Galium aparine); assay: as above
Source text: as §1, §2

[6] = tested on: johnsongrass (Sorghum halepense); assay: as above
Source text: as §1, §2

[7] = tested on: morningglory (Ipomoea coccinea); assay: as above
Source text: as §1, §2

[8] = tested on: oilseed rape (Brassica napus); assay: as above
Source text: as §1, §2

[9] = tested on: pigweed (Amaranthus retroflexus); assay: as above
Source text: as §1, §2

[10] = tested on: ragweed (common ragweed, Ambrosia elatior); assay: as above
Source text: as §1, §2

soybean (Glycine max) = assay: as above
Source text: as §1, §2

[11] = tested on: velvetleaf (Abutilon theophrasti); assay: as above
Source text: as §1, §2

[12] = tested on: waterhemp (common waterhemp, Amaranthus rudis); assay: as above
Source text: as §1, §2

[13] = tested on: wheat (winter wheat, Triticum aestivum); assay: as above
Source text: as §1, §2

kochia (Kochia scoparia) = assay: Test C greenhouse herbicide test, postemergence
Outline: (§3)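 Seedlings are raised in pots of peat moss–vermiculite medium with starter nutrients, then receive postemergence test chemical at the 1- to 4-leaf stage. They are kept in the greenhouse 13 to 15 d and scored visually versus controls, 0 meaning no effect and 100 complete control.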

[14] = tested on: oat, wild (wild oat, Avena fatua); assay: Test C greenhouse herbicide test, postemergence
Outline: as §3

[15] = Postemergence, 31 g ai/ha, 0 to 100 scale (0 no effect, 100 complete control)
[16] = Postemergence, 125 g ai/ha, scale 0 to 100, 0 is no effect, 100 is complete control
[17] = Postemergence, 250 g ai/ha, scale 0 to 100, 0 no effect, 100 complete control, 13 to 15 d
[18] = Preemergence, 31 g ai/ha, scale 0 to 100, 0 is no effect, 100 is complete control
[19] = Preemergence, 62 g ai/ha, scale 0 to 100, 0 is no effect, 100 is complete control
[20] = Preemergence, 125 g ai/ha, scale 0 to 100, 0 is no effect, 100 is complete control
[21] = Preemergence, 250 g ai/ha, scale 0 to 100 (0 no effect, 100 complete control)
[22] = postemergence, 62 g ai/ha, scale 0 to 100, 0 no effect, 100 complete control

## CCC(=O)Oc1c(C)nn(C)c(=O)c1-c1c(C)sc2ccc(C)cc12 [Compound 42]
[1]; [15]
  Barnyardgrass plant response rating: 20
[1]; [16]
  Plant response rating, Barnyardgrass: 30
[1]; [17]
  Plant response rating, Barnyardgrass: 40
[1]; [18]
  Plant response rating, Barnyardgrass: 0
[1]; [19]
  Plant response rating, Barnyardgrass: 30
[1]; [20]
  Plant response rating, Barnyardgrass: 60
[1]; [21]
  Barnyardgrass plant response rating: 80
[1]; [22]
  Barnyardgrass plant response rating: 30
[2]; [15]
  Blackgrass plant response rating: 30
[2]; [16]
  Plant response rating, Blackgrass: 60
[2]; [17]
  Plant response rating, Blackgrass: 70
[2]; [18]
  Plant response rating, Blackgrass: 40
[2]; [19]
  Plant response rating, Blackgrass: 85
[2]; [20]
  Plant response rating, Blackgrass: 90
[2]; [21]
  Blackgrass plant response rating: 90
[2]; [22]
  Blackgrass plant response rating: 35
Corn (Zea mays); [15]
  Corn plant response rating: 0
Corn (Zea mays); [16]
  Plant response rating, Corn: 5
Corn (Zea mays); [17]
  Plant response rating, Corn: 5
Corn (Zea mays); [18]
  Plant response rating, Corn: 0
Corn (Zea mays); [19]
  Plant response rating, Corn: 0
Corn (Zea mays); [20]
  Plant response rating, Corn: 10
Corn (Zea mays); [21]
  Corn plant response rating: 35
Corn (Zea mays); [22]
  Corn plant response rating: 5
[3]; [15]
  Crabgrass, Large plant response rating: 10
[3]; [16]
  Plant response rating, Crabgrass, Large: 20
[3]; [17]
  Plant response rating, Crabgrass, Large: 20
[3]; [18]
  Plant response rating, Crabgrass, Large: 55
[3]; [19]
  Plant response rating, Crabgrass, Large: 70
[3]; [20]
  Plant response rating, Crabgrass, Large: 80
[3]; [21]
  Crabgrass, Large plant response rating: 85
[3]; [22]
  Crabgrass, Large plant response rating: 15
[4]; [15]
  Foxtail, Giant plant response rating: 25
[4]; [16]
  Plant response rating, Foxtail, Giant: 35
[4]; [17]
  Plant response rating, Foxtail, Giant: 80
[4]; [18]
  Plant response rating, Foxtail, Giant: 75
[4]; [19]
  Plant response rating, Foxtail, Giant: 80
[4]; [20]
  Plant response rating, Foxtail, Giant: 90
[4]; [21]
  Foxtail, Giant plant response rating: 100
[4]; [22]
  Foxtail, Giant plant response rating: 30
[5]; [15]
  Galium plant response rating: 95
[5]; [16]
  Plant response rating, Galium: 100
[5]; [17]
  Plant response rating, Galium: 95
[5]; [18]
  Plant response rating, Galium: 90
[5]; [19]
  Plant response rating, Galium: 90
[5]; [20]
  Plant response rating, Galium: 95
[5]; [21]
  Galium plant response rating: 98
[5]; [22]
  Galium plant response rating: 90
[6]; [15]
  Johnsongrass plant response rating: 5
[6]; [17]
  Plant response rating, Johnsongrass: 25
[6]; [18]
  Plant response rating, Johnsongrass: 0
[6]; [19]
  Plant response rating, Johnsongrass: 0
[6]; [20]
  Plant response rating, Johnsongrass: 5
[6]; [21]
  Johnsongrass plant response rating: 30
[6]; [22]
  Johnsongrass plant response rating: 5
[7]; [15]
  Morningglory plant response rating: 75
[7]; [16]
  Plant response rating, Morningglory: 100
[7]; [17]
  Plant response rating, Morningglory: 100
[7]; [18]
  Plant response rating, Morningglory: 85
[7]; [19]
  Plant response rating, Morningglory: 98
[7]; [20]
  Plant response rating, Morningglory: 98
[7]; [21]
  Morningglory plant response rating: 98
[7]; [22]
  Morningglory plant response rating: 100
[8]; [15]
  Oilseed Rape plant response rating: 0
[8]; [16]
  Plant response rating, Oilseed Rape: 10
[8]; [17]
  Plant response rating, Oilseed Rape: 0
[8]; [18]
  Plant response rating, Oilseed Rape: 0
[8]; [19]
  Plant response rating, Oilseed Rape: 0
[8]; [20]
  Plant response rating, Oilseed Rape: 5
[8]; [21]
  Oilseed Rape plant response rating: 20
[8]; [22]
  Oilseed Rape plant response rating: 5
[9]; [15]
  Pigweed plant response rating: 85
[9]; [16]
  Plant response rating, Pigweed: 98
[9]; [17]
  Plant response rating, Pigweed: 98
[9]; [18]
  Plant response rating, Pigweed: 100
[9]; [19]
  Plant response rating, Pigweed: 100
[9]; [20]
  Plant response rating, Pigweed: 100
[9]; [21]
  Pigweed plant response rating: 100
[9]; [22]
  Pigweed plant response rating: 95
[10]; [15]
  Ragweed plant response rating: 90
[10]; [16]
  Plant response rating, Ragweed: 98
[10]; [17]
  Plant response rating, Ragweed: 100
[10]; [18]
  Plant response rating, Ragweed: 90
[10]; [19]
  Plant response rating, Ragweed: 90
[10]; [20]
  Plant response rating, Ragweed: 95
[10]; [21]
  Ragweed plant response rating: 100
[10]; [22]
  Ragweed plant response rating: 85
Soybean (Glycine max); [15]
  Soybean plant response rating: 0
Soybean (Glycine max); [16]
  Plant response rating, Soybean: 10
Soybean (Glycine max); [17]
  Plant response rating, Soybean: 15
Soybean (Glycine max); [18]
  Plant response rating, Soybean: 35
Soybean (Glycine max); [19]
  Plant response rating, Soybean: 0
Soybean (Glycine max); [20]
  Plant response rating, Soybean: 0
Soybean (Glycine max); [21]
  Soybean plant response rating: 5
Soybean (Glycine max); [22]
  Soybean plant response rating: 5
[11]; [15]
  Velvetleaf plant response rating: 45
[11]; [16]
  Plant response rating, Velvetleaf: 85
[11]; [17]
  Plant response rating, Velvetleaf: 95
[11]; [18]
  Plant response rating, Velvetleaf: 85
[11]; [19]
  Plant response rating, Velvetleaf: 90
[11]; [20]
  Plant response rating, Velvetleaf: 90
[11]; [21]
  Velvetleaf plant response rating: 98
[11]; [22]
  Velvetleaf plant response rating: 85
[12]; [15]
  Waterhemp plant response rating: 75
[12]; [16]
  Plant response rating, Waterhemp: 98
[12]; [17]
  Plant response rating, Waterhemp: 95
[12]; [18]
  Plant response rating, Waterhemp: 80
[12]; [19]
  Plant response rating, Waterhemp: 98
[12]; [20]
  Plant response rating, Waterhemp: 100
[12]; [21]
  Waterhemp plant response rating: 100
[12]; [22]
  Waterhemp plant response rating: 85
[13]; [15]
  Wheat plant response rating: 0
[13]; [16]
  Plant response rating, Wheat: 0
[13]; [17]
  Plant response rating, Wheat: 0
[13]; [18]
  Plant response rating, Wheat: 0
[13]; [19]
  Plant response rating, Wheat: 0
[13]; [20]
  Plant response rating, Wheat: 0
[13]; [21]
  Wheat plant response rating: 5
[13]; [22]
  Wheat plant response rating: 0
Kochia (Kochia scoparia); [15]
  Kochia plant response rating: 90
Kochia (Kochia scoparia); [16]
  Plant response rating, Kochia: 100
Kochia (Kochia scoparia); [17]
  Plant response rating, Kochia: 100
Kochia (Kochia scoparia); [22]
  Kochia plant response rating: 100
[14]; [15]
  Oat, Wild plant response rating: 75
[14]; [16]
  Plant response rating, Oat, Wild: 90
[14]; [17]
  Plant response rating, Oat, Wild: 95
[14]; [22]
  Oat, Wild plant response rating: 90
